Source: patent publication US7629355B2 (priority 2003, dated 2009)
Counter-ions that a name gives are not always drawn. Like-named read-outs stand apart in the source and are kept apart here.

What was measured:
opiate receptor = opiate receptor assay of Pert et al.; type: binding
Source text: (Raven Press, New York, N.Y.), at pp. 33-43. […] Int. Pharmacodyn.

[1] = induced Straub tail method (antagonist activity); settings: for Antagonism (μmol/kg) Straub Tail: in vivo
[2] = reversal of morphine-induced analgesia in the tail flick assay; settings: reversal of analgesia induced by morphine
μ receptor [3] = molecular target: T1, μ receptor (Homo sapiens, UniProt P35372); test: biochemical; type: biochemical
δ receptor [4] = molecular target: T2, δ receptor (Homo sapiens, UniProt P41143); test: biochemical; type: biochemical
T2 construct: expressed in transfected cells; host or cells: CHO cells

κ receptor [5] = molecular target: T3, κ receptor (Homo sapiens, UniProt P41145); test: biochemical; type: biochemical
T3 construct: expressed in transfected cells; host or cells: CHO cells

[6] = in animals; cited from earlier work
δ receptor [7] = molecular target: T2, δ receptor; test: biochemical; type: binding
μ receptor [8] = molecular target: T1, μ receptor; test: biochemical; type: binding
μ receptor [9] = molecular target: T1, μ receptor; test: pA2 analysis of antagonist activity against DAMGO dose response curve; type: biochemical
κ receptor [10] = molecular target: T3, κ receptor; test: biochemical; type: binding
[11] = mouse jump test (physical dependence); type: in vivo; settings: 30 min after 100 mg/kg naloxone on day 4; test compound ip days 1-3
Experimental: Antagonist activity, considered a measure of nonaddictiveness, was measured by the opiate receptor assay of Pert et al. (1974) Mol. Pharmacol. 10:868. Antagonist activity was also measured using the induced Straub tail method as described by DeGraw et al. (1978) J. Med Chem. 21:415, and Blumberg et al. (1973) Advances in Chemical Psychopharmacology, Vol. 8, M. Braudy et al. eds. (Raven Press, New York, N.Y.), at pp. 33-43. A direct and simple assay measuring physical dependence is the mouse jump test described by Saelens et al. (1971) Arch. Int. Pharmacodyn. 190:213.
Physical dependence, a more direct measure of non-addictive properties than antagonist activity, was evaluated using the mouse jump test. Mice were injected intraperitoneally 5 times on day 1 with increasing doses of test compound ranging from 8-100 mg/kg body weight. On days 2 and 3 the mice were given 100 mg/kg 4 times. On day 4 all mice received 100 mg/kg of the antagonist naloxone in a single dose. The mice were then caged for 30 min, and a record was made of the number jumping during this time.

[12] = +NaCl, read-out: Opiate Receptor Inhibition (IC50, nM) +NaCl
[13] = −NaCl, read-out: Opiate Receptor Inhibition (IC50, nM) −NaCl

T3 sequence (P41145 whole entry): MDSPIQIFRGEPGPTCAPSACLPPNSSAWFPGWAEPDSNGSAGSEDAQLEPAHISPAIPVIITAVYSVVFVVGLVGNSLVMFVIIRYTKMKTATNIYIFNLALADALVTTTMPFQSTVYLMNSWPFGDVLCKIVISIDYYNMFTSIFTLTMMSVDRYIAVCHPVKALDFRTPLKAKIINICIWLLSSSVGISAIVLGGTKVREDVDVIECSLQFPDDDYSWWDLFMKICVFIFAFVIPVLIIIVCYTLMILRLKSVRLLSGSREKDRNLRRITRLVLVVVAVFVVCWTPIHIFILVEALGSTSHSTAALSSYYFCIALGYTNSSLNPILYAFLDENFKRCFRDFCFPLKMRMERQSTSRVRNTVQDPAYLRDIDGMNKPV
T1 sequence (P35372 whole entry): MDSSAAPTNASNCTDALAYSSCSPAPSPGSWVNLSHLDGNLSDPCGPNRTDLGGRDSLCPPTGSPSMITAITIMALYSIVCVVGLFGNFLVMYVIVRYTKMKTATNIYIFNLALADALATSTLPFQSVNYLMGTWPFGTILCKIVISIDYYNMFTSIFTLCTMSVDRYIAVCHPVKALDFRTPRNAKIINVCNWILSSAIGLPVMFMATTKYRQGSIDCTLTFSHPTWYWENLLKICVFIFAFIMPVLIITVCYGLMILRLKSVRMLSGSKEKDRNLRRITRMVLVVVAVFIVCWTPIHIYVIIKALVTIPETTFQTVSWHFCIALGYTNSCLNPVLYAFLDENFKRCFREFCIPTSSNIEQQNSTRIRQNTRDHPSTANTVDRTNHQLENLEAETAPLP
T2 sequence (P41143 whole entry): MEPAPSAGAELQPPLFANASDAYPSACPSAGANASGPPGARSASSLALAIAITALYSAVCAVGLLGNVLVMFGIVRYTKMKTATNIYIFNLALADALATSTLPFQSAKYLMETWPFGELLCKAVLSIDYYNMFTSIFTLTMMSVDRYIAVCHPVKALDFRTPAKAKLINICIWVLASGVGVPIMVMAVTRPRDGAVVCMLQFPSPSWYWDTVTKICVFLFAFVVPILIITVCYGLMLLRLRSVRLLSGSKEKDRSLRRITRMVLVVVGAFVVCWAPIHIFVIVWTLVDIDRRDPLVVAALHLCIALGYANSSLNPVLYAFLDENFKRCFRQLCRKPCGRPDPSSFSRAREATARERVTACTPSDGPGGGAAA

CC(C1CC1)N1CCC23c4c5ccc(O)c4OC2C(O)C=CC3C1C5 (mixture of isomers) (as salt: salt) [N-α-methylcyclopropylmethyl-normorphine (mixture)] [N-[(1R,S)-1-Cyclopropylethyl]-Normorphine]
melting point: 248 to 250 °C

CC(C1CC1)N1CCC23c4c5ccc(O)c4OC2C(O)C=CC3C1C5 (mixture of isomers) [N-α-methylcyclopropylmethyl-normorphine (mixture)] [N-[(1R,S)-1-Cyclopropylethyl]-Normorphine]
IC50 (opiate receptor; [12]): 6 nM
IC50 (opiate receptor; [13]): 3 nM
antagonist potency relative to nalorphine ([1]; Straub tail method): about one-fourth
Antagonism (μmol/kg) Straub Tail [1]: 4.5 µmol/kg

CC(C1CC1)N1CCC23c4c5ccc(O)c4OC2C(O)C=CC3C1C5 (single isomer, unassigned; diastereomer b) [N-α-methylcyclopropylmethyl-normorphine (S isomer), N-methylcyclopropylmethyl-normorphine (diastereomer B)]
IC50 (opiate receptor; [13]): 0.23 nM
Antagonism (μmol/kg) Tail Flick [2]: >213 µmol/kg
melting point: 209 to 210 °C

C[C@H]1[C@H]2Cc3ccc(O)cc3[C@]1(C)CCN2CC1CC1 [Cyclazocine, reference compound]
μ % Stim (μ receptor [3]): 33 ± 18%
EC50 (δ receptor [4]): 2.9 ± 1.9 nM
δ % Stim (δ receptor [4]): 82 ± 9%
EC50 (κ receptor [5]): 0.8 ± 0.2 nM
κ % Stim (κ receptor [5]): 80%

C[C@@H](NC(=O)[C@@H](N)Cc1ccc(O)cc1)C(=O)NCC(=O)N(C)[C@@H](Cc1ccccc1)C(=O)NCCO [DAMGO, [D-Ala^2, NMePhe^4, Gly^5-ol]-enkephalin]
κ % Stim (κ receptor [5]): 62%

CCC(C)N1CCC23c4c5ccc(O)c4OC2C(O)C=CC3C1C5 [N-sec-butyl normorphine (R), reference compound]
IC50 (opiate receptor; [12]): 110 nM
IC50 (opiate receptor; [13]): 60 nM
Antagonism (μmol/kg) Straub Tail [1]: 16.2 µmol/kg

CCC(C)N1CCC23c4c5ccc(O)c4OC2C(O)C=CC3C1C5 [N-sec-butyl normorphine (S), reference compound]
IC50 (opiate receptor; [12]): 62 nM
IC50 (opiate receptor; [13]): 28 nM
Antagonism (μmol/kg) Straub Tail [1]: 7.4 µmol/kg

C[C@H](C1CC1)N1CC[C@]23c4c5ccc(O)c4O[C@H]2[C@@H](O)C=C[C@H]3[C@H]1C5 [compound 1, N-[(1R)-1-cyclopropylethyl]-normorphine]
respiratory depression [6]: free of respiratory depression
therapeutic index [6]: high therapeutic index
Ki (δ receptor [7]): 3.97 ± 0.98 nM
affinity in the opiate assay relative to N-sec-butyl-normorphine (opiate receptor; relative to N-sec-butyl-normorphine): about 122 times
affinity in the opiate assay relative to morphine (opiate receptor; relative to morphine): over 43 times
IC50 (opiate receptor; [13]): 7 nM
EC50 (μ receptor [3]): > 10000 nM
functional character at the μ receptor (μ receptor [3]): pure antagonist
Ki (μ receptor [8]): 0.35 ± 0.06 nM
Antagonism (μmol/kg) Tail Flick [2]: >213 µmol/kg
Kb (μ receptor [9]): 1.43 ± 0.16 nM
Slope (μ receptor [9]; n=6): −1.04
pA2 (μ receptor [9]; n=6): 8.84±0.06
EC50 (δ receptor [4]): 39.6 ± 6.3 nM
functional character at δ (δ receptor [4]): partial agonist
δ % Stim (δ receptor [4]): 22 ± 6%
EC50 (κ receptor [5]): 15.2 ± 2.5 nM
functional character at κ (κ receptor [5]): partial agonist
κ % Stim (κ receptor [5]): 63 ± 1%
Ki (κ receptor [10]): 0.43 ± 0.11 nM

CN1CC[C@]23c4c5ccc(O)c4O[C@H]2[C@@H](O)C=C[C@H]3[C@H]1C5 [morphine]
Antagonism (μmol/kg) Tail Flick [2]: 2 µmol/kg
number of mice jumping [11]: 10/10
Antagonism (μmol/kg) Straub Tail [1]: 1 µmol/kg

C=CCN1CC[C@]23c4c5ccc(O)c4O[C@H]2[C@@H](O)C=C[C@H]3[C@H]1C5 [nalorphine, reference compound]
IC50 (opiate receptor; [12]): 6 nM
IC50 (opiate receptor; [13]): 2 nM
Antagonism (μmol/kg) Tail Flick [2]: 2.04 µmol/kg

(−)SKF 10,047
κ % Stim (κ receptor [5]): 49 ± 13%
EC50 (κ receptor [5]; read-out: κ EC50): 5.38 ± 2.3 nM

[D-Pen^2,D-Pen^5]-enkephalin [DPDPE, reference compound]
κ % Stim (κ receptor [5]): 77%
